Here are results for four compounds from US20110020837A1, “Method for isolating or identifying a target protein interacting with a lipid in a cell” (Universiteit Utrecht Holding B.V., priority 2009, published 2011).

Series [1] is described as follows: Stability of terminal alkyne towards UV irradiation, 1H-NMR analysis. The class given is physicochemical. The note with it: irradiation for 5 minutes.
A short description of series [2]: UV activation of the photoactivatable diazirine ring, loss of absorption at 349.5 nm. The class given is physicochemical. The note with it: ethanolic solution, thirty seconds of irradiation, 200 W mercury lamp, filter below 350 nm. The protocol:
FIG. 9. Panel A, Activation of the photoactivatable diazirine ring was optimized by exposing an ethanolic solution of 10-azi-stearic acid (10-ASA) under the described conditions to UV-light for the indicated time. Absorbance at 349.5 nm was measured to monitor decay of 10-ASA. Panel B, A solution of defatted BSA (1 mg/ml) was irradiated under the same conditions and analyzed by SDS-PAGE.
Samples were irradiated applying a 200 W high pressure mercury lamp (Oriel Photomax) equipped with a PYREX® glass filter to remove wavelengths below 350 nm. Samples were placed on ice at a distance from 35 cm from the light source. In order to optimize cross-linking conditions we made use of the characteristic absorption of the diazirine group (FIG. 8). An ethanolic solution of 10-azi stearic acid (10-ASA) was irradiated under the conditions described above and the loss of absorption at 349.5 nm was monitored (FIG. 9, Panel A). Thirty seconds of irradiation activated 95% of the photoactivatable group. Samples were UV irradiated for 1 minute. To exclude degradation of proteins under these conditions a 1 mg/ml solution of BSA was irradiated up to 5 minutes and analyzed by gel electrophoresis and subsequent Coomassie staining (FIG. 9, Panel B). […]

Series [3] deals with membrane and cytosolic proteins of CHO-CGalT cells. The experiment in a line: In vivo labeling of cells with C15pacFA, alexa488-azide click of membranes and cytosol, SDS-PAGE in-gel fluorescence. It is filed as cell-based. The note with it: membranes and cytosol after UV irradiation. The protocol: FIG. 2. In vivo labeling of proteins interacting with lipids. CHO-CGalT cells were labeled with and without 100 μM C15pacFA for 16 hours. Where indicated, cells were UV irradiated. Total membranes were separated from cytosol. The cytosolic proteins were precipitated by CHCl3/MeOH precipitation and total membranes as well as the cytosolic precipitate were subjected to click reaction conditions using alexa488-azide or biotin-azide. Panel A, Proteins labeled with alexa488-azide were separated by SDS-PAGE and analyzed by in-gel fluorescence. […] The lanes were cut into ten gel pieces as indicated and analyzed by mass spectrometry as described herein. […]
In order to see whether pacFAs can be used to investigate protein-lipid interactions in vivo, we administered C15pacFA to cells. […] Both membranes and cytosol were subjected to click reaction conditions and samples were analyzed by SDS-PAGE and in-gel fluorescence (FIG. 2). […] 208 proteins were identified that were exclusively detected upon labeling cells with C15pacFA (FIG. 2, Panel D, lane III). […] Proteins that were exclusively detected upon labeling with C15pacFA and subsequent cross-linking (lane IV) are given in Table 2. […]

For series [4], the system named is CHO-CGalT cells. Description: Morphology of cells after labeling with pacFAs. It is filed as cell-based. The note with it: cells labeled with pacFA.
A further series concerns HeLa cells. Description: Cell imaging of bifunctional lipids: UV fixation, lipid extraction, alexa-azide click, fluorescent microscopy. The note with it: UV irradiated versus non-irradiated, non-crosslinked lipids extracted. The class given is cell-based. The protocol:
Microscopy of lipids requires a fluorescent tag on the lipid. In contrast to polyene lipids, most fluorescent tags interfere with the properties of thus labeled lipids.^[24] […] Lipids are highly dynamic and their chemical fixation remained difficult. […] To this end, C15pacFA was administered to cells. Lipids were fixed in vivo by UV-irradiation followed by the fixation of cells with methanol. In order to remove non-protein-crosslinked lipids, cells were extracted according to Bligh and Dyer.^[27] Samples were subjected to click reactions with alexa-azide and lipids were visualized by fluorescent microscopy.
HeLa cells grown on cover slips in a 24-well plate were labeled for 1 hour in 0.5 ml DMEM 4.5 g/liter glucose supplemented with 10% delipidated FCS and 100 μM C15pacFA. The cells were washed with 0.5 mL PBS, overlaid with 0.5 mL PBS and UV irradiated on ice for 2 minutes. After UV irradiation the cells were fixed with 0.5 mL of −20° C. cold MeOH for 10 minutes. After fixation cells were subjected to one, two or three rounds of lipid extraction according to Bligh and Dyer using 0.5 ml of CHCl3/MeOH/AcOH 10:55:0.75 v/v for each extraction (for each extraction coverslips were incubated for 1 minute at room temperature). The coverslips were washed with 0.5 mL PBS and then subjected to click reactions. […]

In series [5] the test system is CHO-CGalT cells. Description: Incorporation of pacFAs into cellular lipids, lipid extracts analysed by nano-ESI-MS/MS. The class given is cell-based. The following applies: 100 μM, 16 hours. The protocol: FIGS. 7A and 7B. Mass spectrometric analysis of photoactivatable and clickable PC species. CHO-CGaIT cells (−5×10^7 cells) were labeled for 16 hours in delipidated medium in the absence (upper panel) or presence (lower panel) of 100 μM (FIG. 7A) C15pacFA or (FIG. 7B) C16pacFA. Lipids were extracted, dried and subsequently dissolved in 5 mM ammonium acetate in MeOH and subjected to nano-ESI-MS/MS. Shown are PREC184 spectra visualizing choline phosphate-containing lipids. Abbreviations give the total number of carbon atoms of fatty acids attached and the numbers of double bonds within the fatty acid. Transparent bars highlight PC species containing the pacFAs.
Given the small size of fatty acids, additional functional groups might have an impact on their physical properties. Due to the rigidity of the triple bond pacFAs are slightly kinked in the end and their overall length is shorter compared with their corresponding natural counterparts. […] Phosphatidylcholine (PC) is the major lipid class in eukaryotic cells. To analyze choline phosphate containing species, a precursor ion scanning procedure was employed selecting for fragments with a mass of 184 Da. […] UV irradiation of the lipid extracts gave rise to peaks with a mass 28 Da lower than the corresponding pacPC species due to the release of nitrogen followed by either an α-hydrogen migration or an intramolecular crosslink of the carbene (data not shown).^[4] […] SM16:0 is the major SM species in CHO cells. Its biosynthesis requires two palmitoyl-CoA: (i) as a precursor of the sphingoid backbone and (ii) for its N-acylation. The length of the N-acylated fatty acid is strictly controlled since there is no SM14:0 and only a minor amount of SM18:0 in CHO cells.^[5] Therefore, we assumed that the chain length of C15pacFA might interfere with its incorporation into SM. […]
Lipids were extracted according to Bligh and Dyer and analyzed as described previously (K. Retra, O. B. Bleijerveld, R. A. van Gestel, A. G. Tielens, J. J. van Hellemond, J. F. Brouwers, Rapid Commun. Mass Spectrom. 2008, 22, 1853.^[20]

The target of series [6] is defatted bovine serum albumin (BSA) (Bos taurus, UniProt P02769). The experiment in a line: Photo-affinity labeling of defatted BSA with C15pacFA, click reaction with biotin-azide, Western blot. The class given is binding. The following applies: incubation with C15pacFA, UV-irradiation and click reaction with biotin-azide. For orientation: In western blotting, separated proteins are transferred to a membrane and probed.
defatted bovine serum albumin (BSA), sequence (P02769 25-607): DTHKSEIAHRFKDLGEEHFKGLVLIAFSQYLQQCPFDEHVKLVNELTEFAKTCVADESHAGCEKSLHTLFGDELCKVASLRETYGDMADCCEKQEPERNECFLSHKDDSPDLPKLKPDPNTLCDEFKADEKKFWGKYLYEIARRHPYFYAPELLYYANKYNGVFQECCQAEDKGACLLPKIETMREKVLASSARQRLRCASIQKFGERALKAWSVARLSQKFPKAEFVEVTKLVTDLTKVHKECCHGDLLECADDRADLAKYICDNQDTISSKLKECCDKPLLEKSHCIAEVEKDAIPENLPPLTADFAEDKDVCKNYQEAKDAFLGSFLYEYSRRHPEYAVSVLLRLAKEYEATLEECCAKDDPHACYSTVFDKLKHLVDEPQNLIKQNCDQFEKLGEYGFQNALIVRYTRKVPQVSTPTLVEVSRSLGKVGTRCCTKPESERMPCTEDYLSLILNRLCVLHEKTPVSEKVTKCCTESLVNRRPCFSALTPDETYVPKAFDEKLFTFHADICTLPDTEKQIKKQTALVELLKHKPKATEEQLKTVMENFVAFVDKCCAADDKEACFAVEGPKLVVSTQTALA
Method: As a proof-of-concept that C15pacFA can be used to tag proteins with an affinity for fatty acids, defatted bovine serum albumin (BSA) was incubated with C15pacFA and subsequently UV-irradiated. Thereafter, the mixture was subjected to a click reaction, applying biotin-azide (see FIG. 5). […] CuSO4 serves as a source for Cu(I) that is required for the catalytic cycle of the [3+2] cyclo-addition and was formed in situ by the addition of the reducing agent TCEP.
Samples were irradiated applying a 200 W high pressure mercury lamp (Oriel Photomax) equipped with a PYREX® glass filter to remove wavelengths below 350 nm. Samples were placed on ice at a distance from 35 cm from the light source. […] Samples were UV irradiated for 1 minute. […]

A further series has as its target lysozyme (Gallus gallus, UniProt P00698). The experiment in a line: Photo-affinity labeling of lysozyme with C15pacFA (specificity control), click reaction with biotin-azide, Western blot. The class given is binding. The note with it: same conditions as BSA; protein known not to interact with lipids. As for the experimental part: FIG. 5. Panel A, Proof-of-concept for the specific interaction of pacFA with a fatty acid binding protein. An ethanolic solution of C15pacFA was added to a solution of defatted-BSA or lysozyme in PBS as described above. After incubating for 1 hour at room temperature samples were UV-irradiated and 20 μl were subjected to click reaction with biotin-azide. Samples were analyzed by SDS-PAGE, followed by Western blotting and detection via NeutrAvidin coupled to horse radish peroxidase. Panel B, SDS-PAGE and subsequent staining with Coomassie brilliant blue.
Serum albumin binds and transports fatty acids. As a proof-of-concept that C15pacFA can be used to tag proteins with an affinity for fatty acids, defatted bovine serum albumin (BSA) was incubated with C15pacFA and subsequently UV-irradiated. […]
Samples were irradiated applying a 200 W high pressure mercury lamp (Oriel Photomax) equipped with a PYREX® glass filter to remove wavelengths below 350 nm. […] An ethanolic solution of 10-azi stearic acid (10-ASA) was irradiated under the conditions described above and the loss of absorption at 349.5 nm was monitored (FIG. 9, Panel A). […] To exclude degradation of proteins under these conditions a 1 mg/ml solution of BSA was irradiated up to 5 minutes and analyzed by gel electrophoresis and subsequent Coomassie staining (FIG. 9, Panel B). […]

lysozyme, sequence (P00698 19-147): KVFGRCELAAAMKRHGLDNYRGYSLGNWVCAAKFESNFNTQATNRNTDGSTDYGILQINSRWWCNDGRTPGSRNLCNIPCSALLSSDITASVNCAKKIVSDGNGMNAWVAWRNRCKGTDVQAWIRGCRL

Regarding `C#CCc1ccccc1` [3-phenyl-1-propyne], the “stability towards UV irradiation” value in series [1] is listed as “stability of alkynes towards UV irradiation”.

For the compound `CCCCCCCCC1(CCCCCCCCC(=O)O)N=N1` [10-ASA, 10-azi-stearic acid], in series [2], the “activation of the photoactivatable group” value is 95%.

With `C#CCCCC1(CCCCCCCCC(=O)O)N=N1` [C15pacFA, 9-(3-pent-4-ynyl-3-H-diazirin-3-yl)-nonanoic acid], the “proteins labeled by photo-affinity labeling (in-gel fluorescence)” value in series [3] is listed as “not only membrane proteins were labeled by means of photo-affinity labeling but also cytosolic proteins”. Moreover, in the series with CHO-CGalT cells [4], the “morphological differences after labeling” value is “No morphological differences were observed”. The “fluorescent structures after click reaction with alexa-azide” value in the series on HeLa cells is “Fluorescent structures were only visible in the UV irradiated samples”. The “incorporation into sphingomyelin (SM)” value in the series with CHO-CGalT cells [5] was “No significant incorporation”. Moreover, the “incorporation into phosphatidylcholine (pacPC species)” value in the series on CHO-CGalT cells [5] (precursor ion scan 184 Da) is reported as “led to additional peaks corresponding to pacPC species”. Further, the “labeling of BSA” value in series [6] is recorded as “BSA could be labeled”. Besides, on lysozyme, the labeling of lysozyme entry was “no labeling of lysozyme was observed”.

`C#CCCCC1(CCCCCCCCC(=O)O)N=N1` [C16pacFA, 9-(3-Pent-4-ynyl-3-H-diazirin-3-yl)-nonanoic acid]: the “morphological differences after labeling” value in the series on CHO-CGalT cells [4] is “No morphological differences were observed”. For the same compound, the “incorporation into sphingomyelin (SM)” value with CHO-CGalT cells [5] was “no incorporation”.
